# Measured values taken from patent US11946094B2, “Combination therapies and methods of use thereof” (Augusta University Research Institute, Inc., priority 2017, dated 2024).
# Structures can show the parent of a compound that is named as a salt. Where two headings read alike, the source gives them in different places.
# Tested on: OVCAR-8 cells
# Test: Drug-siRNA combination screen: 346-compound anticancer library at 100 nM, CCK-8 viability
# [1] = OVCAR-8, drug 100 nM plus siRNA knockdown of each of 18 genes, distance VAB−VA×VB in SD, single gene contributes at most +5 / −5, negative = synergy, positive = antagonism
# [2] = OVCAR-8, drug 100 nM, panel of 18 siRNA knockdowns
# [3] = OVCAR-8, drug 100 nM, siRNA knockdown
Compound,Score (sum of observed SD values for 18 genes) [1],also measured
Cc1cc2c(C(C)C)c(O)c(O)c(C=O)c2c(O)c1-c1c(C)cc2c(C(C)C)c(O)c(O)c(C=O)c2c1O [Gossypol],−13.34 SD,–
C[C@]12CCC(=O)C=C1CC[C@@H]1[C@@H]2[C@@H](O)C[C@@]2(C)[C@H]1CC[C@]2(O)C(=O)CO [Hydrocortisone],−21.54 SD,–
Cc1ccccc1-n1c(Cn2cnc3c(N)ncnc32)nc2cccc(C)c2c1=O [IC - 87114],14.65 SD,–
CC(C)n1nc(-c2ccc3oc(N)nc3c2)c2c(N)ncnc21 [INK 128],−44.98 SD,–
C=CC(=O)N1CCC[C@@H](n2nc(-c3ccc(Oc4ccccc4)cc3)c3c(N)ncnc32)C1 [Ibrutinib],-58.62 SD,–
NC(=O)c1ccc(I)c([N+](=O)[O-])c1 [Iniparib],−21.58 SD,–
CCc1c2c(nc3ccc(OC(=O)N4CCC(N5CCCCC5)CC4)cc13)-c1cc3c(c(=O)n1C2)COC(=O)[C@]3(O)CC.Cl [Irinotecan HCI],−7.65 SD,–
CCc1c2c(nc3ccc(OC(=O)N4CCC(N5CCCCC5)CC4)cc13)-c1cc3c(c(=O)n1C2)COC(=O)[C@]3(O)CC [Irinotecan],−36.08 SD,–
Cc1ccc(C(=O)N(CCCN)[C@@H](c2nc3cc(Cl)ccc3c(=O)n2Cc2ccccc2)C(C)C)cc1 [Ispinesib],1.22 SD,–
CCC(C)n1ncn(-c2ccc(N3CCN(c4ccc(OCC5COC(Cn6cncn6)(c6ccc(Cl)cc6Cl)O5)cc4)CC3)cc2)c1=O (stereo not drawn) [Itraconazole],−13.51 SD,–
CC(C)C[C@H](NC(=O)CNC(=O)c1cc(Cl)ccc1Cl)B(O)O [Ixazomib],-52.76 SD,–
Nc1nc(Nc2ccc(S(N)(=O)=O)cc2)nn1C(=O)c1c(F)cccc1F [JNJ - 7706621],5.07 SD,–
Cn1cc(-c2ccc3nnc(C(F)(F)c4ccc5ncccc5c4)n3n2)cn1 [JNJ−38877605],2.72 SD,–
O=c1cc(-c2cccc3c2Sc2ccccc2S3)oc(N2CCOCC2)c1 [KU-55933],−14.37 SD,–
C[C@@H]1CN(CC(=O)Nc2ccc3c(c2)Cc2cccc(-c4cc(=O)cc(N5CCOCC5)o4)c2S3)C[C@H](C)O1 [KU-60019],−25.5 SD,–
O=C(Cc1ccc(-c2ccc(OCCN3CCOCC3)cc2)cn1)NCc1ccccc1 [KX2-391],13.4 SD,–
COc1ccc(-c2ccc3c(N4CCOCC4)nc(N4C[C@@H](C)O[C@@H](C)C4)nc3n2)cc1CO [Ku-0063794],−41.94 SD,–
c1ccc2c(-c3cnn4cc(-c5ccc(N6CCNCC6)cc5)cnc34)ccnc2c1 [LDN193189],−28.37 SD,–
O=c1cc(N2CCOCC2)oc2c(-c3ccccc3)cccc12 [LY294002],−8.41 SD,–

Compound,Score (sum of observed SD values for 18 genes) [1],also measured
c1ccc(-c2nn3c(c2-c2ccnc4cc(OCCN5CCOCC5)ccc24)CCC3)nc1 [LY2109761],−40.45 SD,–
Cc1cccc(-c2nn3c(c2-c2ccnc4ccc(C(N)=O)cc24)CCC3)n1 [LY2157299],−0.82 SD,–
CC(C)(C)Cn1c(N)nc2ccc(-c3[nH]c(C(C)(C)C)nc3-c3ccc(F)cc3)nc21 [LY2228820],−30.98 SD,–
Cc1cnc(NC(=O)Nc2cc(Br)c(C)cc2OC[C@@H]2CNCCO2)cn1 [LY2603618],-52.09 SD,"synergy / antagonism of drug with gene knockdowns, in words [2]: high level of synergism"
COc1cc2nccc(Oc3ccc(NC(=O)NC4CC4)c(Cl)c3)c2cc1C(N)=O [Lenvatinib],−27.5 SD,–
Nc1nc(=O)c2c([nH]1)NCC(CNc1ccc(C(=O)N[C@@H](CCC(=O)[O-])C(=O)[O-])cc1)N2C=O.[Ca+2] (stereo partly drawn) [Leucovorin Calcium],1.29 SD,–
Cc1ccc(F)c(NC(=O)Nc2ccc(-c3cccc4[nH]nc(N)c34)cc2)c1 [Linifanib],−25.28 SD,–
C[C@]1(O)C[C@@H](c2nc(-c3ccc4ccc(-c5ccccc5)nc4c3)c3c(N)nccn32)C1 [Linsitinib],−28.72 SD,–
O=C(O)c1nn(Cc2ccc(Cl)cc2Cl)c2ccccc12 [Lonidamine],−16.85 SD,–
O=C(O)CC[C@H]1CC[C@@](c2cc(F)ccc2F)(S(=O)(=O)c2ccc(Cl)cc2)CC1 [MK-0752],−34.92 SD,–
C=CCn1c(=O)c2cnc(Nc3ccc(N4CCN(C)CC4)cc3)nc2n1-c1cccc(C(C)(C)O)n1 [MK-1775],-64.04 SD,"synergy / antagonism of drug with gene knockdowns, in words [2]: Frequently among the top synergizing pairs; number of genes (of 18) with high synergy with the drug [3]: 13 genes"
Cl.Cl.NC1(c2ccc(-c3nc4ccc5n[nH]c(=O)n5c4cc3-c3ccccc3)cc2)CCC1 [MK-2206 2HCI],−23.29 SD,–
CC(C)C[C@H](NC(=O)CNC(=O)c1cc(Cl)ccc1Cl)B1OC(=O)C(CC(=O)O)(CC(=O)O)O1 [MLN9708],−34 SD,–
Cc1ccc(NC(=O)c2ccc(CN3CCN(C)CC3)cc2)cc1Nc1nc(-c2cccnc2)cs1 [Masitinib],−4.23 SD,–
C[C@H]1C[C@H]2[C@@H]3CCC4=CC(=O)C=C[C@]4(C)[C@H]3C(=O)C[C@]2(C)[C@@]1(O)C(=O)CO [Meprednisone],−25.82 SD,–
O=S(=O)(O)CCS [Mesna],−15.88 SD,–
CC#C[C@]1(O)CC[C@H]2[C@@H]3CCC4=CC(=O)CCC4=C3[C@@H](c3ccc(N(C)C)cc3)C[C@@]21C [Mifepristone],−22.75 SD,–
Nc1ccccc1NC(=O)c1ccc(CNc2nccc(-c3cccnc3)n2)cc1 [Mocetinostat],1.27 SD,"synergy / antagonism of drug with gene knockdowns, in words [2]: frequently antagonized by knockdown of specific genes"
N#CCNC(=O)c1ccc(-c2ccnc(Nc3ccc(N4CCOCC4)cc3)n2)cc1 [Momelotenib],−0.52 SD,–

Compound,Score (sum of observed SD values for 18 genes) [1],also measured
CC1(C)CNc2cc(NC(=O)c3cccnc3NCc3ccncc3)ccc21 [Motesanib Diphosphate],−12.16 SD,–
COc1c(C)c2c(c(O)c1C/C=C(\C)CCC(=O)OCCN1CCOCC1)C(=O)OC2 [Mycophenolate mofetil],−3.2 SD,–
COc1c(C)c2c(c(O)c1C/C=C(\C)CCC(=O)O)C(=O)OC2 [Mycophenolic acid],−20.87 SD,–
O=c1cc(N2CCOCC2)oc2c(-c3cccc4c3sc3ccccc34)cccc12 [NU7441],−10.42 SD,–
CCN1CCN(Cc2ccc(-c3cc4c(N[C@H](C)c5ccccc5)ncnc4[nH]3)cc2)CC1 [NVP-AEE788],−41.08 SD,–
Cl.Cl.Fc1cc(-c2cccc3ncc(-c4cnn(C5CCNCC5)c4)nc23)cc(F)c1CN1CCOCC1 [NVP-BSK805 2HCI],−43.77 SD,–
CC1(C)CCC(c2ccc(Cl)cc2)=C(CN2CCN(c3ccc(C(=O)NS(=O)(=O)c4ccc(N[C@H](CCN5CCOCC5)CSc5ccccc5)c(S(=O)(=O)C(F)(F)F)c4)cc3)CC2)C1 [Navitoclax],−13.79 SD,–
CCOc1cc2ncc(C#N)c(Nc3ccc(OCc4ccccn4)c(Cl)c3)c2cc1NC(=O)/C=C/CN(C)C [Neratinib],–,"Score (sum of observed SD values for 18 genes): −39.86 SD; synergy / antagonism of drug with gene knockdowns, in words: significant synergy with nine or more genes"
COC(=O)c1ccc2c(c1)NC(=O)/C2=C(\Nc1ccc(N(C)C(=O)CN2CCN(C)CC2)cc1)c1ccccc1 [Nintedanib],−36.11 SD,–
COC(=O)Nc1nc2ccc(C(=O)c3cccs3)cc2[nH]1 [Nocodazole],−7.78 SD,–
COc1ccc(C2=N[C@@H](c3ccc(Cl)cc3)[C@@H](c3ccc(Cl)cc3)N2C(=O)N2CCNC(=O)C2)c(OC(C)C)c1 [Nutlin-3],−5.25 SD,–
C#Cc1cccc(Nc2ncnc3cc(OCCOC)c(OCCO)cc23)c1 [OSI-420],−27.08 SD,–
O=C(Nc1ccc(OC(F)(F)F)cc1)c1sccc1NCc1ccnc2ccccc12 [OSI-930],−0.3 SD,–
COC1=CC(c2cc3ccccc3[nH]2)=N/C1=C\c1[nH]c(C)cc1C [Obatoclax mesylate],−10.02 SD,–
O=C(c1cc(Cc2n[nH]c(=O)c3ccccc23)ccc1F)N1CCN(C(=O)C2CC2)CC1 [Olaparib],−19.18 SD,–
C[C@](O)(COc1ccc(C#N)cc1)C(=O)Nc1ccc(C#N)c(C(F)(F)F)c1 [Ostarine],−14.47 SD,–
C=CCc1cccc(/C=N/NC(=O)CN2CCN(Cc3ccccc3)CC2)c1O [PAC - 1],−13.56 SD,–
CN(C)Cc1c(C(=O)NCCOc2ccc(C(=O)NO)cc2)oc2ccccc12 [PCI-24781],-54.91 SD,"synergy / antagonism of drug with gene knockdowns, in words [2]: mostly synergistic; number of genes (of 18) whose knockdown synergizes with the drug [3]: 12 genes"
